The test system of experiment [1] is Glomerella lacenarium (Colletotrichum lacenarium). As to the kind of experiment: Fungicidal activity, liquid culture, cucumber preventative (anthracnose). The format is cell-based. As to conditions: 20 ppm in the applied formulation, liquid culture in PDB, inhibition of growth measured photometrically 3 to 4 days after application, compared to untreated control, read-out: disease control. In a few lines: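 Conidia from cryogenic storage were mixed into potato dextrose broth and added to DMSO solutions of test compound in microtiter plates. Plates were incubated at 24° C. and growth inhibition read photometrically 3 to 4 days after application, as percent antifungal activity versus untreated check.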

Experiment [2] has as its system Puccinia recondita f. Sp. Tritici. As to the kind of experiment: Fungicidal activity, wheat leaf disc curative (brown rust). The format is in vivo. As to conditions: foliar, 200 ppm in the applied formulation, wheat leaf segments cv. Kanzler, curative (applied 1 day after inoculation), compared to untreated control, 6 to 8 days after application, read-out: disease control. As to the method: (§1) Leaf disks or leaf segments of various plant species are cut from plants grown in a greenhouse. The cut leaf disks or segments are placed in multiwell plates (24-well format) onto water agar. The leaf disks are sprayed with a test solution before (preventative) or after (curative) inoculation. Compounds to be tested are prepared as DMSO solutions (max. 10 mg/ml) which are diluted to the appropriate concentration with 0.025% Tween20 just before spraying. The inoculated leaf disks or segments are incubated under defined conditions (temperature, relative humidity, light, etc.) according to the respective test system. A single evaluation of disease level is carried out 3 to 14 days after inoculation, depending on the pathosystem. Percent disease control relative to the untreated check leaf disks or segments is then calculated.
Wheat leaf segments cv. Kanzler are placed on agar in multiwell plates (24-well format). The leaf segments are then inoculated with a spore suspension of the fungus. Plates were stored in darkness at 19° C. and 75% relative humidity. The formulated test compound diluted in water was applied 1 day after inoculation. The leaf segments were incubated at 19° C. and 75% relative humidity under a light regime of 12 hours light/12 hours darkness in a climate cabinet and the activity of a compound was assessed as percent disease control compared to untreated when an appropriate level of disease damage appears in untreated check leaf segments (6 to 8 days after application).
(§2) The following compounds at 200 ppm in the applied formulation give at least 80% disease control in this test when compared to untreated control leaf disks under the same conditions, which show extensive disease development.

For experiment [3] the test system is unchanged. As to the kind of experiment: Fungicidal activity, wheat leaf disc preventative (brown rust). The format is in vivo. Conditions: foliar, 200 ppm in the applied formulation, wheat leaf segments cv. Kanzler, compared to untreated control, 7 to 9 days after application, read-out: disease control. On the procedure: as §1
Wheat leaf segments cv. Kanzler were placed on agar in multiwell plates (24-well format) and sprayed with the formulated test compound diluted in water. The leaf disks were inoculated with a spore suspension of the fungus 1 day after application. The inoculated leaf segments were incubated at 19° C. and 75% relative humidity (rh) under a light regime of 12 hours light/12 hours darkness in a climate cabinet and the activity of a compound was assessed as percent disease control compared to untreated when an appropriate level of disease damage appears in untreated check leaf segments (7 to 9 days after application).
as §2

For the compound `CON(C)C(=O)N(Cc1ccc(-c2noc(C(F)(F)F)n2)s1)OC` [Compound 1.6, 1,3-dimethoxy-1-methyl-3-[[5-[5-(trifluoromethyl)-1,2,4-oxadiazol-3-yl]-2-thienyl]methyl]urea], the inhibition of growth at 20 ppm in experiment [1] was at least 80%. Besides, the pest or weed control at 200 ppm in experiment [2] and in experiment [3] was at least 80% each time.
Turning to `CCOC(=O)N(Cc1ccc(-c2noc(C(F)(F)F)n2)s1)OC` [Compound 1.28, ethyl N-methoxy-N-[[5-[5-(trifluoromethyl)-1,2,4-oxadiazol-3-yl]-2-thienyl]methyl]carbamate], the inhibition of growth at 20 ppm in experiment [1] was at least 80%. Moreover, the pest or weed control at 200 ppm in experiment [2] and in experiment [3] was at least 80% each time.
On to `CNS(=O)(=O)N(Cc1ccc(-c2noc(C(F)(F)F)n2)s1)OC` [Compound 1.32, 3-[5-[[methoxy(methylsulfamoyl)amino]methyl]-2-thienyl]-5-(trifluoromethyl)-1,2,4-oxadiazole], for which, in experiment [1], the inhibition of growth at 20 ppm was at least 80%. In addition, the pest or weed control at 200 ppm in experiment [2] and in experiment [3] was at least 80% in each case.
Turning to `COC(C)C(=O)N(OC)C(C)c1ccc(-c2noc(C(F)(F)F)n2)s1` (stereo not drawn) [Compound 1.49, N,2-dimethoxy-N-[1-[5-[5-(trifluoromethyl)-1,2,4-oxadiazol-3-yl]-2-thienyl]ethyl]propanamide], in experiment [1], the inhibition of growth at 20 ppm is at least 80%. For the same compound, in experiment [2], the pest or weed control at 200 ppm was at least 80%.
With `CNC(=O)N(OC)C(C)c1ccc(-c2noc(C(F)(F)F)n2)s1` (stereo not drawn) [Compound 1.50, 1-methoxy-3-methyl-1-[1-[5-[5-(trifluoromethyl)-1,2,4-oxadiazol-3-yl]-2-thienyl]ethyl]urea], the inhibition of growth at 20 ppm in experiment [1] is at least 80%. Moreover, the pest or weed control at 200 ppm in experiment [2] and in experiment [3] was at least 80% in each case.
Turning to `CCONC(=O)N(Cc1ccc(-c2noc(C(F)(F)F)n2)s1)OC` [Compound 1.55, 3-ethoxy-1-methoxy-1-[[5-[5-(trifluoromethyl)-1,2,4-oxadiazol-3-yl]-2-thienyl]methyl]urea], in experiment [1], the inhibition of growth at 20 ppm is at least 80%. The pest or weed control at 200 ppm in experiment [2] and in experiment [3] was at least 80% throughout.
`COCCN(CCOC)C(=O)N(Cc1ccc(-c2noc(C(F)(F)F)n2)s1)OC` [Compound 1.56, 1-methoxy-3,3-bis(2-methoxyethyl)-1-[[5-[5-(trifluoromethyl)-1,2,4-oxadiazol-3-yl]-2-thienyl]methyl]urea]: in experiment [1], the inhibition of growth at 20 ppm was at least 80%. The pest or weed control at 200 ppm in experiment [2] is at least 80%.
Turning to `CON(Cc1ccc(-c2noc(C(F)(F)F)n2)s1)C(=O)N1CCCO1` [Compound 1.57, N-methoxy-N-[[5-[5-(trifluoromethyl)-1,2,4-oxadiazol-3-yl]-2-thienyl]methyl]isoxazolidine-2-carboxamide], the inhibition of growth at 20 ppm in experiment [1] was at least 80%. Moreover, the pest or weed control at 200 ppm in experiment [2] is at least 80%.
Take `CON(Cc1ccc(-c2noc(C(F)(F)F)n2)s1)C(=O)N(CC(F)F)C1CC1` [Compound 1.59, 1-cyclopropyl-1-(2,2-difluoroethyl)-3-methoxy-3-[[5-[5-(trifluoromethyl)-1,2,4-oxadiazol-3-yl]-2-thienyl]methyl]urea]: the inhibition of growth at 20 ppm in experiment [1] is at least 80%. The pest or weed control at 200 ppm in experiment [2] and in experiment [3] was at least 80% throughout.
As for `CCCN(CC1CC1)C(=O)N(Cc1ccc(-c2noc(C(F)(F)F)n2)s1)OC` [Compound 1.60, 1-(cyclopropylmethyl)-3-methoxy-1-propyl-3-[[5-[5-(trifluoromethyl)-1,2,4-oxadiazol-3-yl]-2-thienyl]methyl]urea], the inhibition of growth at 20 ppm in experiment [1] was at least 80%. The pest or weed control at 200 ppm in experiment [2] and in experiment [3] was at least 80% each time.
With `CC(C)C(=O)N(Cc1ccc(-c2noc(C(F)(F)F)n2)s1)C1CC1` [Compound 4.3, N-cyclopropyl-2-methyl-N-[[5-[5-(trifluoromethyl)-1,2,4-oxadiazol-3-yl]-2-thienyl]methyl]propanamide], in experiment [1], the inhibition of growth at 20 ppm was at least 80%. Moreover, the pest or weed control at 200 ppm in experiment [2] and in experiment [3] was at least 80% throughout.
For `CCOC(=O)N(Cc1ccc(-c2noc(C(F)(F)F)n2)s1)C1CC1` [Compound 4.4, ethyl N-cyclopropyl-N-[[5-[5-(trifluoromethyl)-1,2,4-oxadiazol-3-yl]-2-thienyl]methyl]carbamate], the inhibition of growth at 20 ppm in experiment [1] is at least 80%. Further, the pest or weed control at 200 ppm in experiment [2] and in experiment [3] was at least 80% each time.
For the compound `CCN(Cc1ccc(-c2noc(C(F)(F)F)n2)s1)C(=O)C(C)OC` (stereo not drawn) [Compound 4.6, N-ethyl-2-methoxy-N-[[5-[5-(trifluoromethyl)-1,2,4-oxadiazol-3-yl]-2-thienyl]methyl]propanamide], the inhibition of growth at 20 ppm in experiment [1] is at least 80%. For the same compound, the pest or weed control at 200 ppm in experiment [2] and in experiment [3] was at least 80% in each case.
In the case of `COC(C)C(=O)N(Cc1ccc(-c2noc(C(F)(F)F)n2)s1)C(C)C` (stereo not drawn) [Compound 4.18, N-isopropyl-2-methoxy-N-[[5-[5-(trifluoromethyl)-1,2,4-oxadiazol-3-yl]-2-thienyl]methyl]propanamide], the inhibition of growth at 20 ppm in experiment [1] is at least 80%. Also, the pest or weed control at 200 ppm in experiment [2] was at least 80%.
With `CCC(C)C(=O)N(CC)Cc1ccc(-c2noc(C(F)(F)F)n2)s1` (stereo not drawn) [Compound 4.27, N-ethyl-2-methyl-N-[[5-[5-(trifluoromethyl)-1,2,4-oxadiazol-3-yl]-2-thienyl]methyl]butanamide], in experiment [1], the inhibition of growth at 20 ppm was at least 80%. Besides, the pest or weed control at 200 ppm in experiment [2] was at least 80%.
On to `CCC(C)C(=O)N(Cc1ccc(-c2noc(C(F)(F)F)n2)s1)C1CC1` (stereo not drawn) [Compound 4.57, N-cyclopropyl-2-methyl-N-[[5-[5-(trifluoromethyl)-1,2,4-oxadiazol-3-yl]-2-thienyl]methyl]butanamide], for which the inhibition of growth at 20 ppm in experiment [1] is at least 80%. For the same compound, the pest or weed control at 200 ppm in experiment [2] was at least 80%.
Turning to `CCC(C)C(=O)N(Cc1ccc(-c2noc(C(F)(F)F)n2)s1)OCC(F)F` (stereo not drawn) [Compound 4.66, N-(2,2-difluoroethoxy)-2-methyl-N-[[5-[5-(trifluoromethyl)-1,2,4-oxadiazol-3-yl]-2-thienyl]methyl]butanamide], in experiment [1], the inhibition of growth at 20 ppm is at least 80%. The pest or weed control at 200 ppm in experiment [2] was at least 80%.
As to `O=C(CC(F)(F)F)N(Cc1ccc(-c2noc(C(F)(F)F)n2)s1)OCC(F)F` [Compound 4.68, N-(2,2-difluoroethoxy)-3,3,3-trifluoro-N-[[5-[5-(trifluoromethyl)-1,2,4-oxadiazol-3-yl]-2-thienyl]methyl]propanamide], the inhibition of growth at 20 ppm in experiment [1] is at least 80%. The pest or weed control at 200 ppm in experiment [2] was at least 80%.
Consider `CCN(Cc1ccc(-c2noc(C(F)(F)F)n2)s1)C(=O)C1CC1(F)F` (stereo not drawn) [Compound 5.15, N-ethyl-2,2-difluoro-N-[[5-[5-(trifluoromethyl)-1,2,4-oxadiazol-3-yl]-2-thienyl]methyl]cyclopropanecarboxamide], for which, in experiment [1], the inhibition of growth at 20 ppm is at least 80%. The pest or weed control at 200 ppm in experiment [2] was at least 80%.
With `CC(C)N(Cc1ccc(-c2noc(C(F)(F)F)n2)s1)C(=O)C1CCC1` [Compound 5.29, N-isopropyl-N-[[5-[5-(trifluoromethyl)-1,2,4-oxadiazol-3-yl]-2-thienyl]methyl]cyclobutanecarboxamide], in experiment [1], the inhibition of growth at 20 ppm was at least 80%. For the same compound, the pest or weed control at 200 ppm in experiment [2] is at least 80%.
`CC(C)N(Cc1ccc(-c2noc(C(F)(F)F)n2)s1)C(=O)C1CCCO1` (stereo not drawn) [Compound 5.31, N-isopropyl-N-[[5-[5-(trifluoromethyl)-1,2,4-oxadiazol-3-yl]-2-thienyl]methyl]tetrahydrofuran-2-carboxamide]: in experiment [1], the inhibition of growth at 20 ppm was at least 80%. Besides, the pest or weed control at 200 ppm in experiment [2] is at least 80%.
In the case of `CC(C)N(Cc1ccc(-c2noc(C(F)(F)F)n2)s1)C(=O)C1CC1(F)F` (stereo not drawn) [Compound 5.33, 2,2-difluoro-N-isopropyl-N-[[5-[5-(trifluoromethyl)-1,2,4-oxadiazol-3-yl]-2-thienyl]methyl]cyclopropanecarboxamide], the inhibition of growth at 20 ppm in experiment [1] is at least 80%. The pest or weed control at 200 ppm in experiment [2] is at least 80%.

The record behind these values is US20200187502A1, “MICROBIOCIDAL OXADIAZOLE DERIVATIVES” (SYNGENTA PARTICIPATIONS AG, priority 2017, published 2020).
